This is an account of results in paper PMC7824033, “Flavones, Flavonols, and Glycosylated Derivatives—Impact on Candida albicans Growth and Virulence, Expression of CDR1 and ERG11, Cytotoxicity” (Pharmaceuticals, 2020).

In brackets after ≈: the same amount, converted by molar mass. Entries after “also recorded” stand apart in the source; their conditions may differ. Where two headings read alike, the source gives them in different places.

The test system of one data set is ERG11. Description: Expression of ERG11 (qPCR). The following applies: treatment with MIC. Format: cell-based, Candida albicans. As for the experimental part: Total RNA was isolated as described by Sanglard et al. with some modifications. C. albicans 475/15 was grown with agitation at 30 °C in YEPD until OD540 = 0.4. C. albicans cells were incubated with MIC of compounds in YEPD at 30 °C with agitation for 30 min. Cells were centrifuged (4600 rpm, 4 °C for 5 min (Rotanata 460 R, Hettich, Tuttlingen, Germany)) and the pellet was resuspended in 300 µL of RNA buffer (0.1 M Tris-HCl pH 7.5, 0.1M LiCl, 10mM EDTA, 0.5% SDS). The pellet was homogenized with 200 µL of DEPC treated glass beads and 300 µL of Phenol:Chloroform:Isoamyl Alcohol (Sigma-Aldrich, Darmstadt, Germany) in Precellys Evolution tissue homogenizer (Bertion instruments, Montigny-le-Bretonneux, France) at 4500 rpm for 5 s. After centrifugation (14,000 rpm, 4 °C, 1 min (Universal 32 R, Hettich, Tuttlingen, Germany)) 200 µL of supernatant was vortexed with 250 µL of Phenol:Chloroform:Isoamyl Alcohol for 10 s. Samples were centrifuged (14,000 rpm, 4 °C, 1 min) and 200 µL of supernatant was transferred to new tubes, 400 µL of ice-cold 99% ethanol was added to each tube, and they were kept on dry ice for 10 min. Samples were centrifuged (14,000 rpm, 4 °C, 2 min), pellet was washed with ethanol (70%), left to dry at room temperature, after which it was dissolved in 50 µL of DEPC treated water. Nanodrop (ND-1000, Witec AG, Sursee, Switzerland) was used for determination of concentration and purity of samples. RNA was stored at −80°C.
Amount of 10 µg RNA was incubated with 5 µL of DNAse buffer and 1 µL of DNAse at 37 °C for 30 min (DNA-free™ DNA Removal Kit, Ambion, Bleiswijk, Netherlands). After addition of DNAse inactivation reagent tubes were kept at room temperature with occasional vortexing for 5 min. Samples were centrifuged (14,000 rpm, 4°C, 2 min) and the concentration and quality of supernatant were analyzed on Nanodrop (ND-1000, Witec AG, Sursee, Switzerland).
Synthesis of cDNA was done with a Transcriptor High Fidelity cDNA synthesis kit (Roche). RNA (1 µg) was incubated with 60 µM random hexamer primers, in 11.4 µL of total sample volume, at 65 °C for 10 min. The mixture of Transcriptase reaction buffer 5×, Deoxynucleotide mix, DTT, Protector RNAse inhibitor, and Transcriptor High Fidelity Reverse Transcriptase was added to each tube according to manufacturer instructions. Synthesis of cDNA was completed by incubating the mixture at 50 °C for 30 min and 85 °C for 5 min (Peqstar thermocycler, Peqlab, Erlangen, Germany).
Wells of MicroAmp Fast 96-Well Reaction plate ((0.1 mL), Applied biosystems, Waltham, MA, USA) were incubated with 10 µL of mixture (cDNA, 2× MasterMix, primers, probe (Table 3), and water). Analysis was performed in StepOnePlus Real Time PCR system with relative standard curve method. Expression levels of CDR1 and ERG11 were normalized to expression of ACT1.

Data set [1] has as its system C. albicans 475/15 biofilm formation. Kind of data set: Inhibition of biofilm formation (crystal violet). Format: cell-based, Candida albicans. As for the experimental part: Potential of selected compounds to interfere with C. albicans 475/15 biofilm formation was investigated as previously described. Briefly, C. albicans 475/15 was incubated with serial dilution of the compounds (MIC and subMICs) in YPD medium, in 96-well microtiter plates with adhesive bottom (Sarstedt, Nümbrecht, Germany), at 37 °C for 24 h. After incubation, wells were washed twice with sterile PBS and methanol was added into each well. After fixation, methanol was discarded, and the plate was air dried. Formed biofilms were stained with 0.1% crystal violet (Bio-Merieux, Craponne, France) for 30 min. The plate was gently washed under the tap of water and air dried. The stain bound to the remaining biofilms was dissolved with ethanol (96%, Zorka, Šabac, Serbia). Absorbance was read on a Multiskan™ FC Microplate Photometer, Thermo Scientific™. The percentage of inhibition of biofilm formation was calculated by the formula:[(A620control − A620sample)/A620control] × 100

The subject of data set [2] is non-tumor colon cell (IEC-18). Set-up: method as in PMID 25359775. The settings on record: up to 150 μM; cited from earlier work.
For another data set, the system named is CDR1. Kind of data set: Expression of CDR1 (qPCR). It counts as cell-based, Candida albicans. The following applies: treatment with MIC. A general note: Real-time PCR tracks product formation cycle by cycle.
The next data set relates to S. aureus efflux. Set-up: method as in PMID 25961825. The following applies: S. aureus; cited from earlier work.
The test system of another data set is ALS1, ALS3, HWP1, SUN41. The following applies: ref 18; cited from earlier work.
The test system of data set [3] is C. albicans morphological transition. The settings on record: cited from earlier work.

In the case of `O=c1c(O[C@@H]2O[C@H](CO)[C@@H](O)[C@H](O)[C@H]2O)c(-c2ccc(O)c(O)c2)oc2cc(O)cc(O)c12` [Isoquercitrin, isoquercitrin], the figures for the “impact on ERG11 expression (words)” value in the data set with ERG11 and in the data set with ERG11 (listed as isoquercitrin) were “increased expression levels” and “upregulated; also recorded: increased ERG11 expression”, respectively. For the same compound, the “ERG11 expression level, Log2FC” value in the data set with ERG11 (30 min, normalized to ACT1) was greater than 1 Log2FC. Moreover, the “antibiofilm activity” value in data set [1] (MIC and subMICs) is listed as “excellent activity; also recorded: notably lowered”. In addition, the results for the “inhibition of biofilm formation” value in data set [1] (compound applied at MIC) and in data set [1] (compound applied at MIC/2) were 76% and greater than 60%, respectively. In addition, the “cytotoxic effects” value in data set [2] is “did not show cytotoxic effects”.
In the case of `O=c1c(O)c(-c2ccc(O)c(O)c2)oc2cc(O)cc(O)c12` [Quercetin, quercetin], in the data set with CDR1, the “impact on CDR1 expression” value was “did not exhibit any significant inhibitory potential”. Moreover, in the data set on S. aureus efflux, the “IC50, efflux inhibition” value is reported as 75 µg/mL (≈ 248 µM). Besides, the “ALS1, ALS3, HWP1 and SUN41 expression levels” value with ALS1, ALS3, HWP1, SUN41 was “reduced”. The “concentration leading to reduction of morphological transition” value in data set [3] (ref 18) is 64 µg/mL; in data set [3] (ref 28), “up to 200 µg/mL”.
